Data as given in the NIST ThermoML archive (doi:10.1016/j.jct.2014.03.023).

Assays:
[1] = Pendant drop shape
[2] = molar heat capacity at constant pressure; conditions: 101 kPa, Liquid, Small sample (50 mg) DSC
[3] = wn = mass fraction of the nth substance listed; conditions: Pendant drop shape, w1 = 1

CC[n+]1ccc(C)cc1.O=S(=O)([N-]S(=O)(=O)C(F)(F)F)C(F)(F)F
Conditions | molar heat capacity at constant pressure [J/K/mol] | surface tension liquid-gas [mN/m]
[1], 298.2 K | – | 24.3
[1], 303.2 K | – | 23.9
[1], 313.2 K | – | 23.1
[1], 323.2 K | – | 22.2
[2], 296.2 K | 627 | –
[2], 300.2 K | 634 | –
[2], 304.2 K | 637 | –
[2], 308.2 K | 640 | –
[2], 312.2 K | 644 | –
[2], 316.2 K | 647 | –
[2], 320.2 K | 649 | –
[2], 324.2 K | 652 | –
[2], 328.2 K | 655 | –
[2], 332.2 K | 659 | –
[2], 336.2 K | 665 | –
[2], 340.2 K | 669 | –
[2], 344.2 K | 674 | –
[2], 348.2 K | 679 | –
[2], 352.2 K | 685 | –
[2], 356.2 K | 691 | –
[2], 360.2 K | 697 | –
[2], 364.2 K | 703 | –
[2], 368.2 K | 708 | –
[2], 372.2 K | 715 | –

CCn1cc[n+](C)c1.N#CN=C=[N-] [1-ethyl-3-methylimidazolium dicyanamide]
[1]
Conditions | surface tension liquid-gas [mN/m]
298.2 K | 56.4
303.2 K | 56
313.2 K | 54.8
323.2 K | 53.5

CCn1cc[n+](C)c1.N#CN=C=[N-] [1-ethyl-3-methylimidazolium dicyanamide] + CC[n+]1ccc(C)cc1.O=S(=O)([N-]S(=O)(=O)C(F)(F)F)C(F)(F)F
[3]
Conditions | surface tension liquid-gas [mN/m]
298.2 K | 56.4
303.2 K | 56
313.2 K | 54.8
323.2 K | 53.5
